Results published in publication PMC12592502, “Unraveling the mechanisms behind the enhanced efficacy of β-lactam-based sideromycins” (Communications Biology, 2025).
Values joined by “and” are separate entries in the source; they are usually repeats but may differ in a detail not shown here. Equal entries are not always repeated.

How the values were obtained:
AmpC (PDC-5) = AmpC (PDC-5) (Pseudomonas aeruginosa, UniProt P24735, R79Q/T105A); test: biochemical; assay type: biochemical, P. aeruginosa ATCC 27853
Experimental: The purification of AmpC from the culture supernatant obtained above was conducted as described in the Catwright and Waley protocol[52] using an Affi-gel 10 matrix (Bio-Rad, Hercules, CA, USA) loaded in a column (G-Bioscience, St-Louis, MO, USA). First, the resin was washed with cold deionized water. The resin was then collected and mixed with 20 mL of the 3-aminophenylboronic acid solution (1 M KHCO3 containing 2 g of 3-aminophenyl boronic acid and 2 g of sorbitol) at 4 °C for 1 h, and the pH was maintained at 8 with solid KHCO3. The mixture was loaded onto the column and washed with 10 column volumes of 1 M NaCl/0.5 M sorbitol (pH 7), followed by 10 column volumes of 0.5 M borate (pH 7), and then 10 column volumes of the loading buffer (20 mM triethanolamine HCl/0.5 M NaCl, pH 7). The sample was dialyzed in the loading buffer before being loaded onto the column. The column was washed with the loading buffer until no absorbance was measured at OD280. AmpC was eluted in fractions of 1 mL with 0.5 M borate/0.5 M NaCl pH 7. […] The purity was visualized on a 10% bis-acrylamide gel. Only pure fractions showing a single band at 40 kDa were pooled together and then dialyzed at 4 °C in a KP buffer 0.05 M pH 7 (see Fig. S2). The protein concentration was determined with a Bradford protein reagent (Bio-Rad).
(§1) Enzyme concentrations were 20 nM for AmpC and SHV-1, and 50 nM for OXA-98. Quartz cuvette (FireflySci Inc., Northport, NY) with 1 cm length path and 2 mm inside width was used with an Ultrospec 2100 Pro (Biochrom, Harvard Bioscience Inc., USA) to acquire the kinetic measures. […] The following extinction coefficients (Δε) and wavelengths (λ) were used:
(§2) The steady-state parameters (Km and Kcat) were determined by plotting the initial velocity against substrate concentrations (Michaelis–Menten curve). The Kcat was measured using the Vmax (μM/sec) divided by the total enzyme concentration and the catalytic efficiency was further calculated (Kcat/Km). SHV-1 parameters were determined with three Michaelis–Menten curves of at least seven substrate concentrations, while OXA-98 and AmpC were duplicates of curves of at least seven substrate concentrations. […] Initial velocities were measured at room temperature (25 °C). The Vmax and Km were calculated using least squares fit regression in GraphPad version 10.2.2. Ki was measured using a derivative of IC50 with an adaptation of the Cheng–Prusoff equation[55]. […] The corrected Ki was calculated using this formula: Kicorrected=Ki(observed)/1+S/KmNCF

SHV-1 = SHV-1 (Klebsiella pneumoniae, UniProt P0AD64); test: biochemical
Experimental: as §1, §2

E. coli MC4100 = test: Bactericidal effect in the uptake assay (CFU counts); assay type: cell-based, Escherichia coli; settings: for bacterial inhibition, less than the control without antibiotic: 4-h time point, MHBCA, inoculum 8.5 log10 CFU/mL; for bacterial inhibition, less than the control without antibiotic / dCFU (Δlog10 CFU/mL, count with drug minus growth control): 200 μM drug; for dCFU (Δlog10 CFU/mL, count with drug minus growth control): time 0 h, single replicates
From the text: The bactericidal effect determined at each time point was the difference in the concentration of bacteria in the assay tube with antibiotic and that measured in the growth control tube without drug (ΔLog10 CFU/mL). The normal distribution of the data was verified with the Shapiro–Wilk test and the statistical analysis was a comparison of repeated measures ANOVA (*p ≤ 0.05, **p ≤ 0.01, ***p ≤ 0.001) between each time point relatively to the 0-h time point.

[1] = Antibiotic stability in 4-h bacterial culture supernatant; assay type: physicochemical; settings: for additional decrease of residual concentration in used supernatants versus medium: 4-h supernatants with and without iron, after 3 h; for percentage of antibiotic degradation in [bacterial supernatant]: 3 h
Experimental: For analysis, the determined concentration in the supernatant was adjusted for the degradation of the molecules measured in the stability control tests for each time point. The final net antibiotic concentration in the medium was calculated at each time point by adding the concentration caused by degradation to the concentration of the test antibiotic measured in the assay tubes containing bacteria. […] A second control was added for the β-lactam LOR and CEF to verify the impact of metabolic waste on the stability of the molecules. The supernatant from the 4-h growth control without antibiotic was collected by filtration 0.2 µm. LOR and CEF were then added to the filtrated supernatant at 200 µM, and degradation was measured after 3 h.

PBP5 [2] = molecular target: PBP5 (Klebsiella pneumoniae, UniProt A6T693); test: Membrane PBP binding assay, competition with Bocillin FL; settings: K. pneumoniae ATCC 13883 membranes
Experimental: (§3) Membrane extracts containing PBPs were obtained as described above. Briefly, all species were grown in 1 L of TSB until the OD600 reached 0.9. The washed pellet was incubated with lysozyme (400 μg/mL), DNase (10 μg/mL) RNase(10 μg/mL) and anti-protease cocktail (200 mg/20 mL). Lysis was done with a French press (20,000 psi) and membrane protein were pelleted by ultracentrifugation steps (100,000 × g). The pellet was suspended in a minimal volume (300–500 μL) of KP 0.05 M buffer at pH 7. The protein concentration in the membrane preparations was determined with the Micro BCA TM Protein Assay Kit (Thermo Fisher Scientific, Rockford, IL) using bovine serum albumin as a standard.
(§4) The PBP binding assay was done as described previously[36],[56],[57]. For each antibiotic concentration tested, a quantity of 25 to 40 μg of membrane preparation was used as the source of PBPs, depending on the species. […]
(§5) To be able to visualize labeled PBPs after electrophoresis, gels were rinsed in water and fixed in a solution of 50% methanol and 7% acetic acid for 30 min. […] To obtain quantifiable data, the software Quantity One 1D analysis was used (version 4.6.6; Bio-Rad Laboratories, Richmond, CA). The volume (intensity × constant area) of each PBP was measured. […] The PBP profiles were confirmed, and the PBP numbering were determined using published data and individual molecular weights. […]

PBP5 [3] = molecular target: PBP5 (Escherichia coli, UniProt P0AEB2); test: as above; settings: E. coli MC4100 membranes
Experimental: as §3, §4, §5

[4] = supernatant of 4-hour culture in ID-MHBCA

Sequence of AmpC (PDC-5) (P24735 27-397 R79Q/T105A): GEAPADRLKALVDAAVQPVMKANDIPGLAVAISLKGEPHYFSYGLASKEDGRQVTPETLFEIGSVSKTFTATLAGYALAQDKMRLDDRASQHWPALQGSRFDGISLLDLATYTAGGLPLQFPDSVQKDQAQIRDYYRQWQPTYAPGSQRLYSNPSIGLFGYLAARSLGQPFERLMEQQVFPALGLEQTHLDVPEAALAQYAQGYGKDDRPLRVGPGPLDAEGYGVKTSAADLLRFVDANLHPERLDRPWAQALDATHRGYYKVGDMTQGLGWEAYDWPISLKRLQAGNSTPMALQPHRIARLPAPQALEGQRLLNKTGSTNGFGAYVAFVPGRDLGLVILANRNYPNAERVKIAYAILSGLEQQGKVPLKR
Sequence of SHV-1 (P0AD64 23-286): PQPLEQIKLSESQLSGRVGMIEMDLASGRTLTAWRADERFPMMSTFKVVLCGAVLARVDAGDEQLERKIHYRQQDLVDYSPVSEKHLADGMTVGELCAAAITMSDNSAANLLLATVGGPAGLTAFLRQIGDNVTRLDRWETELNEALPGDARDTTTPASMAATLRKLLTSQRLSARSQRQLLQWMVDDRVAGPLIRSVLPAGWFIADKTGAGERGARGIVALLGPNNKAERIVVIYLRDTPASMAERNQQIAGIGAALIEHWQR
Sequence of PBP5 (Escherichia coli, UniProt P0AEB2) (P0AEB2 30-403): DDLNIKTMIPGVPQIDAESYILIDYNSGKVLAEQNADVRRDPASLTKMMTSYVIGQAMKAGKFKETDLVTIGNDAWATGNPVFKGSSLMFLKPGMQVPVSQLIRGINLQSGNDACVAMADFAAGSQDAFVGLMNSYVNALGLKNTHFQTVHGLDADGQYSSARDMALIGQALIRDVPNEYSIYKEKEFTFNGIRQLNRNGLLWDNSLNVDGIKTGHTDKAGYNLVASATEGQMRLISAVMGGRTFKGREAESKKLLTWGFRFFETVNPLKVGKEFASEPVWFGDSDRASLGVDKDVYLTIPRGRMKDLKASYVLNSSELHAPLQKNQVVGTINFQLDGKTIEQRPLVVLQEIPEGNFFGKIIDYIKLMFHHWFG
Sequence of PBP5 (Klebsiella pneumoniae, UniProt A6T693) (A6T693 entry or part of it): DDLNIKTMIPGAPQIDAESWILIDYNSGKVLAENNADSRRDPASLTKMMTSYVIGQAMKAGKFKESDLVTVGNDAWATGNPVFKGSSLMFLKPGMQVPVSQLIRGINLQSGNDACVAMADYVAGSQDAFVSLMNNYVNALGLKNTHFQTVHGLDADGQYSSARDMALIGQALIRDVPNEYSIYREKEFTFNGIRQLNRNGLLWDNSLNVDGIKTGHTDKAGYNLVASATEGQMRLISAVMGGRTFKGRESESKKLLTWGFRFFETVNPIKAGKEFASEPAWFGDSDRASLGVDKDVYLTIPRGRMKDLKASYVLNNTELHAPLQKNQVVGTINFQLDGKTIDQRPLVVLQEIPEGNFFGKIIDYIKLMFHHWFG

SMILES | Ki (AmpC (PDC-5)) | AmpC (PDC-5) Vmax (AmpC (PDC-5); n = 2) | bacterial inhibition, less than the control without antibiotic (E. coli MC4100) | dCFU (Δlog10 CFU/mL, count with drug minus growth control) (E. coli MC4100; ID FALSE (MHBCA)) | dCFU (Δlog10 CFU/mL, count with drug minus growth control) (E. coli MC4100; ID TRUE (ID-MHBCA)) | additional decrease of residual concentration in used supernatants versus medium [1] | percentage of antibiotic degradation in [bacterial supernatant] [1, 4] | other results
CC1(C)S[C@@H]2[C@H](NC(=O)[C@H](N)c3ccccc3)C(=O)N2[C@H]1C(=O)O [AMP, ampicillin, reference compound] | 15 ± 1 µM | – | – | – | – | – | – | –
CC1(C)SC2C(NC(=O)C(NC(=O)CN(CCCCNC(=O)c3cccc(O)c3O)C(=O)c3cccc(O)c3O)c3ccccc3)C(=O)N2C1C(=O)O (stereo not shown) [BAMP, bis-catechol (azotochelin)-ampicillin] | 19 ± 1 µM | – | – | – | – | – | – | Ki (SHV-1): 184 ± 14 µM
O=C(CN(CCCCNC(=O)c1cccc(O)c1O)C(=O)c1cccc(O)c1O)NC(C(=O)NC1C(=O)N2C(C(=O)O)=C(Cl)CCC12)c1ccccc1 (stereo not shown) [BLOR, bis-catechol (azotochelin)-loracarbef] | – | 11 ± 1 µmol·mg/min | ~ 1.2 log10 CFU/mL | 0.04788 and 0.3837 and 0.3931 | -0.2509 and -0.1259 and 0.08749 and -0.2979 and -0.04259 | – | – | dCFU (E. coli MC4100; ID FALSE (MHBCA), time 8 h): -3.459; dCFU (E. coli MC4100; ID FALSE (MHBCA), time 10 h): -3.652; dCFU (E. coli MC4100; ID FALSE (MHBCA), time 24 h): -3.754
N[C@@H](C(=O)N[C@@H]1C(=O)N2C(C(=O)O)=C(Cl)CS[C@H]12)c1ccccc1 [CEF, cefaclor, reference compound] | – | – | – | 0.07784 and -0.144 and -0.0313 | -0.00308 and -0.2509 and -0.2737 | ≤ 12% | 32% | percentage of antibiotic degradation in [bacterial supernatant] ([1]; supernatant of 4-hour culture in MHBCA): 36%
N[C@@H](C(=O)N[C@@H]1C(=O)N2C(C(=O)O)=C(Cl)CC[C@H]12)c1ccccc1 [LOR, loracarbef, reference compound] | – | 15 ± 0.3 µmol·mg/min | ~ 1.2 log10 CFU/mL | 0.02669 and 0.4114 and -0.0313 | -0.2509 and -0.1259 and -0.06378 | ≤ 12% | 11% | Km (AmpC (PDC-5); Michaelis–Menten curves, n = 2, read-out: AmpC (PDC-5) Km): 22 ± 0.5 µM; SHV-1 Kcat (SHV-1; n = 3): 7.4 ± 0.5 s⁻¹; Km (SHV-1; read-out: SHV-1 Km, Michaelis–Menten curves, n = 3, 25 °C): 29 ± 9 µM; IC50 (PBP5 [2]): > 50 µM; IC50 (PBP5 [3]): > 50 µM
O=C(CCC(=O)N(CCCCNC(=O)c1cccc(O)c1O)CCCNC(=O)c1cccc(O)c1O)NCCCCCN(O)C(=O)CCCC(=O)NC(C(=O)NC1C(=O)N2C(C(=O)O)=C(Cl)CSC12)c1ccccc1 (stereo not shown) [MCEF, mixed ligand bis-catechol-mono-hydroxamate-cefaclor] | – | – | – | 0.157 and -0.07022 and 0.01569 and -0.00717 | 0.0557 and -0.2291 and -0.2621 | – | – | –
